Where “and” joins values, the source holds several entries; their conditions need not be identical. Equal entries are not always repeated.
Key:
SRB [1] = experiment: Hydrogen sulfide inhibition in mock-produced water spiked with SRB (Draeger tubes); type: cell-based, sulfate-reducing bacteria (SRB); conditions: for Total H2S: mock-produced water
Description: (§1) Hydrogen sulfide inhibition was tested in mock-produced water approximating water used in hydraulic fracturing operations and was made to a total dissolved solids concentration of 3% with a mixture of instant ocean and NaCl salts. The water was supplemented with nutrients and sulfate to allow SRB to metabolize and create H2S. The water was spiked with SRB and then treated with the various treatment conditions noted below in Table 3 and sealed. Treatment conditions were: Control: No biocide or nitrate.
(§2) 250 ppm 12.3 Glut/Quat Biocide: a mixture of glutaraldehyde and a quarternary ammonia compound was prepared NRB Program: (480 ppm Ca(NO3)2 with 1 ppm live NRB culture. 20 ppm, 40 ppm, 50 ppm, 60 ppm, 80 ppm, 100 ppm, 120 ppm, 150 ppm, and 200 ppm molybdate concentration-.
(§3) H2S was measured at intervals using H2S detecting Draeger tubes. Dissolved H2S was released into the gas phase with the addition of hydrochloric acid so that H2S could be measured with the Draeger tubes to get a complete reading of all H2S produced during the course of the example.

SRB [2] = experiment: Hydrogen sulfide inhibition in actual produced water from the Eagle Ford shale diluted to 3%, spiked with SRB; type: cell-based, sulfate-reducing bacteria (SRB)
Description: as §1, §2, §3
Samples were prepared in accordance with Example 1, except that actual produced water sourced from the Eagle Ford shale that was diluted to 3% using deionized water was used in the samples.

`[O]=[Mo](=[O])([O-])[O-]` [MoO4, molybdate] was tested, and the “Comparison with Glut/Quat biocide and NRB treatment” value (SRB [1]; mock produced water, concentrations of 150 ppm and above) was “competitive with other proven treatments”, the “Effect on H2S formation” value (SRB [1]; mock produced water, molybdate alone, even at lower concentrations) was “caused a reduction in H2S formation” and the “Total H2S” value (SRB [1]; 20 ppm MoO4) was 1974 ppm. The “Total H2S” value (SRB [1]; 40 ppm MoO4) was 1066 ppm, the “Total H2S” value (SRB [1]; 50 ppm MoO4) was 2262 ppm and 1536 ppm and the “Total H2S” value (SRB [1]; 60 ppm MoO4) was 1846 ppm. For the same compound, the “Total H2S” value (SRB [1]; 80 ppm MoO4) was 1866 ppm, the “Total H2S” value (SRB [1]; 100 ppm MoO4) was 738 ppm and the “Total H2S” value (SRB [1]; 120 ppm MoO4) was 890 ppm. For the same compound, the “Total H2S” value (SRB [1]; 150 ppm MoO4) was 176 ppm, the “Total H2S” value (SRB [1]; 200 ppm MoO4) was 40 ppm and the “Total H2S” value (SRB [2]; 20 ppm MoO4) was 3188 ppm. The “Total H2S” value (SRB [2]; 50 ppm MoO4) was 234 ppm, the “Total H2S” value (SRB [2]; 80 ppm MoO4) was 172 ppm and the “Total H2S” value (SRB [2]; 100 ppm MoO4) was 107 ppm. The “Total H2S” value (SRB [2]; 150 ppm MoO4) was 160 ppm, the “Total H2S” value (SRB [2]; 200 ppm MoO4) was 110 ppm and the “Comparison with Glut/Quat biocide and NRB treatment” value (SRB [2]; concentrations of 50 ppm and above) was “competitive with other proven treatments”. The “Effect on H2S formation” value (SRB [2]; molybdate alone, even at lower concentrations) was “caused a strong reduction in H2S formation”.
